For data set [1] the following is noted: over the parent acid; cited from earlier work.
The subject of data set [2] is Gram-negative and Gram-negative bacteria. Conditions: cited from earlier work.
Data set [3] concerns topoisomerase and gyrase. Conditions: cited from earlier work.
For data set [4] the following is noted: Phase 2 trials, nearly 1,400 patients; cited from earlier work.
Data set [5] can be described thus: Intrinsic dissolution rate. It counts as physicochemical. How it is done: Approximately 100 mg of the pure test compound was compressed under high pressure (7 ton), using a constructed die. No additives were added, thus avoiding any external interference in the intrinsic dissolution profile. The resulting non-disintegrating disc was transferred to the dissolution apparatus, Distek model 5100 premiere dissolution system, containing 900 mL of pH 5 buffer with 15 mM hexadecyl trimethyl ammonium bromide (HTAB), pre-heated to 37° C. The stirring speed of the paddle was set to 50 rpm. The solution was sampled at set time points with the resulting aliquots analyzed directly by HPLC, with reference to standard solutions. 5 standards, with concentrations ranging from 0.03 to 0.005 mg/mL in deionized water, and the sample solutions were injected, together with blank injections of the deionized water. The concentration was calculated using the peak areas determined by integration of the peak found at the same retention time as the principal peak in the standard injection.

The nature of data set [6]: Solid-state stability / polymorph conversion followed by XRPD. The data set is classed as physicochemical. To be noted: for thermodynamic stability: Form 1A versus Form 1B. How it is done:
X-Ray Powder Diffraction patterns were collected on a Bruker AXS C2 GADDS diffractometer using Cu Kα radiation (40 kV, 40 mA), automated XYZ stage, laser video microscope for auto-sample positioning and a HiStar 2-dimensional area detector. X-ray optics consists of a single Gael multilayer mirror coupled with a pinhole collimator of 0.3 mm. A weekly performance check was carried out using a certified standard NIST 1976 Corundum (flat plate). Similar instruments can be used to obtain XRPD patterns.
The beam divergence, i.e. the effective size of the X-ray beam on the sample, was approximately 4 mm. A θ-θ continuous scan mode was employed with a sample—detector distance of 20 cm which gives an effective 2θ range of 3.2°-29.7°. The samples were exposed to the X-ray beam for approximately 120 seconds. The software used for data collection was GADDS for WNT 4.1.16 and the data were analyzed and presented using Diffrac Plus EVA v11.0.0.2 or v13.0.0.2.
Samples run under ambient conditions were prepared as flat plate specimens using powder as received without grinding. Approximately 1-2 mg of the sample was lightly pressed on a glass slide to obtain a flat surface.

Data set [7] can be described thus: Modulated differential scanning calorimetry (mDSC). It counts as physicochemical. To be noted: mDSC thermogram, FIG. 4. How it is done: DSC data were collected on a TA Instruments Q2000 equipped with a 50 position autosampler. Similar instruments can be used to collect DSC data. The calibration for thermal capacity was carried out using sapphire and the calibration for energy and temperature was carried out using certified indium. Modulated temperature DSC was carried out using an underlying heating rate of 2° C./min and temperature modulation parameters of ±1.2° C. (amplitude) every 60 seconds (period). Typically 0.5-3 mg of each sample, in a pin-holed aluminum pan, was heated at […] from 25° C. to 220° C. A purge of dry nitrogen at 50 ml/min was maintained over the sample. The instrument control software was Advantage for Q Series v2.8.0.392 and Thermal Advantage v4.8.3 and the data were analyzed using Universal Analysis v4.4A.
A general note: DSC measures the heat that a sample takes up or gives off during a temperature scan.

Molecules are shown by their SMILES.

Take `CNC[C@H](O)[C@@H](O)[C@H](O)[C@H](O)CO.Nc1nc(-n2cc(C(=O)O)c(=O)c3cc(F)c(N4CC(O)C4)c(Cl)c32)c(F)cc1F` [D-glucitol, 1-deoxy-1-(methylamino)-, 1-(6-amino-3,5-difluoropyridin-2-yl)-8-chloro-6-fluoro-1,4-dihydro-7-(3-hydroxyazetidin-1-yl)-4-oxo-3-quinolinecarboyxlate]: the “solubility, dissolution and bioavailability” value in data set [1] is “improved solubility, dissolution and bioavailability”.
Regarding `Nc1nc(-n2cc(C(=O)O)c(=O)c3cc(F)c(N4CC(O)C4)c(Cl)c32)c(F)cc1F` [Delafloxacin, 1-deoxy-1-(methylamino)-, 1-(6-amino-3,5-difluoropyridin-2-yl)-8-chloro-6-fluoro-1,4-dihydro-7-(3-hydroxyazetidin-1-yl)-4-oxo-3-quinolinecarboyxlate], in data set [2], the potency against bacteria result is listed as “highly potent”. Further, the “inhibition of topoisomerase and gyrase enzyme targets” value in data set [3] was “balanced inhibition”. Moreover, in data set [4], the tolerance and safety result is “good tolerance and safety”.
As for `CNC[C@H](O)[C@@H](O)[C@H](O)[C@H](O)CO.Nc1nc(-n2cc(C(=O)O)c(=O)c3cc(F)c(N4CC(O)C4)c(Cl)c32)c(F)cc1F` [Form 1A, D-glucitol, 1-deoxy-1-(methylamino)-, 1-(6-amino-3,5-difluoropyridin-2-yl)-8-chloro-6-fluoro-1,4-dihydro-7-(3-hydroxyazetidin-1-yl)-4-oxo-3-quinolinecarboyxlate], the dissolution characteristics entry in data set [5] (Form 1A versus Form 1B) is “improved dissolution characteristics”. Moreover, the thermodynamic stability result in data set [6] is “thermodynamic stability over Form 1B”.
Consider `CNC[C@H](O)[C@@H](O)[C@H](O)[C@H](O)CO.Nc1nc(-n2cc(C(=O)O)c(=O)c3cc(F)c(N4CC(O)C4)c(Cl)c32)c(F)cc1F` [Form 1B, D-glucitol, 1-deoxy-1-(methylamino)-, 1-(6-amino-3,5-difluoropyridin-2-yl)-8-chloro-6-fluoro-1,4-dihydro-7-(3-hydroxyazetidin-1-yl)-4-oxo-3-quinolinecarboyxlate], for which, in data set [5] (compressed disc, 900 mL pH 5 buffer with 15 mM HTAB, 37° C., 50 rpm, compared with the other phase), the “initial dissolution rate (intrinsic dissolution profile)” value is “significantly faster initial dissolution rates”. Also, the “dissociation to the free acid post IDR” value in data set [5] (confirmed by 1H NMR analyses post IDR) is reported as “almost complete dissociation to the free acid”. In addition, the “non-reversible transition of Form 1B to Form 1A” value in data set [7] was “about 94 °C”. In data set [6], the thermodynamic stability result is reported as “metastable”. For the same molecule, the “conversion of polymorphic form” value in data set [6] (exposure to humidity and heat, followed by XRPD b-axis reflections) is “converts to crystalline anhydrous Form 1A delafloxacin meglumine on exposure to humidity and heat”.
